Assay results published in patent publication US11242334B2, “Heterocyclic compounds as kinase inhibitors, compositions comprising the heterocyclic compound, and methods of use thereof” (JS INNOPHARM (SHANGHAI) LTD, priority 2017, dated 2022).

Experiments:
human ERK2 = molecular target: T1, human ERK2 (Homo sapiens, UniProt P28482); experiment: LanthaScreen TR-FRET enzymatic assay, ERK2; settings: IC50 values of ERK2 biochemical activity; 5 μM ATP, 400 nM ATF2-GFP substrate
T1 construct: recombinantly expressed as GST-tagged full-length protein purified from E. coli; GST; purchased Invitrogen PV3311; host or cells: E. coli
Experimental: Compounds were tested in a LanthaScreen™ time-resolved fluorescence energy transfer (TR-FRET) enzymatic assay from Invitrogen. The assay used human ERK2 (Mitogen Activated Kinase 1, Invitrogen, Cat. PV3311) recombinantly expressed as GST-tagged full-length protein purified from E. coli and activated in vitro with MAP2K1. The substrate was a recombinant truncated version (residues 19-96) of ATF2 fused with Green Fluorescent Protein (Invitrogen, Cat. PV4445). Test compounds were prepared and diluted in DMSO in 3-fold serial dilutions to 100× of the final testing concentrations. The compounds were then further diluted to 4× by the kinase reaction buffer (Invitrogen, Cat. PV3189). The enzymatic reaction for compound testing was performed in a white 384-well polypropylene plate (Packard, Cat. 6005214) with a total reaction volume of 10 μl containing 20 ng/ml ERK2, 400 nM substrate, and 5 μM ATP that is around its Km. The assay started with loading 2.5 μl of ERK2 diluted in kinase reaction buffer to wells, followed by addition of equal volume of 4× compounds for 15-min incubation at the room temperature for pre-treatment. The enzymatic reaction was initiated by addition of 5 μl of mixture of the substrate and ATP prepared in kinase reaction buffer. After one hour reaction, 10 μl mixture of EDTA (final 10 mM) and terbium-labeled anti-pATF2 (pThr71) antibody (final 2 nM) (Invitrogen, Cat. PV4451) prepared in TR-FRET antibody dilution buffer (Invitrogen, Cat. PV3574) was added to stop the enzymatic reaction and produce TR-FRET signals. After 30 minutes of incubation at room temperature, the plate was read in Tecan Infinite F200 Pro with the following settings: Excitation 340 nm (30)/Emission1 495 nm (10)/Emission2 520 nm (25). The TR-FRET values were dimensionless numbers that were calculated as the ratio of the acceptor ([…]) signal to the donor (Terbium) signal. Percent of control was calculated as the percentage of compound-treated vs 1% DMSO vehicle-treated. The dose-response curves were generated and the ICsos were calculated by nonlinear sigmoid curve fitting using GraphPad Prism.
The IC50 values of ERK2 biochemical activity for the examples disclosed herein are listed in Table 3, A: ≤10 nM; B: >10 nM and ≤50 nM; C: >50 nM and ≤100 nM; D.>100 nM.

Colo205 cell line = experiment: Colo205 cell proliferation assay (MTT assay, WST-8 readout); format: cell-based; settings: Homo sapiens; IC50 values of growth inhibition in Colo 205 cells; 72 hours
Experimental: Compounds disclosed herein were tested for the inhibition of ERK2 by a Colo205 cell proliferation assay commonly known as MTT assay. In this assay, a complete media was prepared by adding 10% fetal bovine serum to RPMI-1640 medium (Life technology). Colon cancer cells (Colo205 cell line) were added to each of 88 wells of a 96 well plate at a seeding density of 5,000 cells/well/90 μL. The cells were allowed to attach to the plate by incubating at 37° C. for 24 hours. The compound was dissolved in DMSO (SIGMA). A solution of test compound was prepared in complete media by serial dilution to obtain the following concentrations: 500 μM, 150 μM, 50 μM, 15 μM, 5 μM, 1.5 μM, 0.5 μM, 0.15 μM and 0.05 μM. The test compound solution (10 μL) was added to each of 80 cell-containing wells. The final concentrations of the compound were following: 50 μM, 15 μM, 5 μM, 1.5 μM, 0.5 μM, 0.15 μM, 0.05 μM, 0.015 μM and 0.005 μM. The final concentration of DMSO is 0.5%. To the 8 remaining cell-containing wells, only complete media (containing 0.5% DMSO) was added to form a control group in order to measure maximal proliferation. To the remaining 8 empty wells, complete media was added to for a vehicle control group in order to measure background. The plates were incubated at 37° C. for 72 hours. 10 μL WST-8 solution (DOJINDO, Cell Counting KIT-8) was added to each well. The plates were further incubated at 37° C. for 2 hours, and then read for the absorbance using a microplate reader at 450 nm.
The IC50 values of growth inhibition in Colo 205 cells for Compounds disclosed are listed in Table 3, A′: ≤0.5 μM; B′: >0.5 μM and ≤1 μM; C′: >1.0 μM and ≤5 uM; D′: >5 μM.

T1 sequence (P28482 whole entry): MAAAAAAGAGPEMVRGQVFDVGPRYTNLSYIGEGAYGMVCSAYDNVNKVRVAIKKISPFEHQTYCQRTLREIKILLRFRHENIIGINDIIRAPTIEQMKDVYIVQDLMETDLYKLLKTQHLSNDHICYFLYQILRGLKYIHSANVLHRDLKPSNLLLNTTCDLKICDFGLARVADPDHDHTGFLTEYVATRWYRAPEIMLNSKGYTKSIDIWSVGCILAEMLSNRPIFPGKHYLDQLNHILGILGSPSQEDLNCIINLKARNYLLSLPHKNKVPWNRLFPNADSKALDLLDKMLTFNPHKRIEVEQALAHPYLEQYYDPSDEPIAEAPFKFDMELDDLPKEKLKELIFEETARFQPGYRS

## C[C@@H](c1cc(F)cc(Br)c1)n1ccc(-c2ccc3[nH]nc(-c4cnn(C)c4)c3c2)cc1=O (single isomer, unassigned) [Example 96A]
Human ERK2
  IC50: < 10 nM
Colo205 cell line
  IC50: 1000 to 5000 nM

## C[C@H](c1cc(F)cc(Br)c1)n1ccc(-c2ccc3[nH]nc(-c4cnn(C)c4)c3c2)cc1=O (single isomer, unassigned) [Example 96B]
Human ERK2
  IC50: < 10 nM
Colo205 cell line
  IC50: ≤ 500 nM

## Cc1cc(-c2n[nH]c3ccc(-c4ccn([C@H](CO)c5cccc(Cl)c5)c(=O)c4)cc23)ccn1 [Example 1, (S)-1-(1-(3-chlorophenyl)-2-hydroxyethyl)-4-(3-(2-methyl-pyridin-4-yl)-1H-indazol-5-yl)pyridin-2(1H)-one]
Human ERK2
  IC50: < 10 nM
Colo205 cell line
  IC50: ≤ 500 nM

## O=c1cc(-c2ccc3[nH]nc(C4CCOCC4)c3c2)ccn1[C@H](CO)c1cccc(Cl)c1 [Example 2, (S)-1-(1-(3-chlorophenyl)-2-hydroxyethyl)-4-(3-(tetrahydro-2H-pyran-4-yl)-1H-indazol-5-yl)pyridin-2(1H)-one]
Human ERK2
  IC50: < 10 nM
Colo205 cell line
  IC50: 500 to 1000 nM

## Cc1n[nH]c2ccc(-c3ccn([C@H](CO)c4cccc(Cl)c4)c(=O)c3)cc12 [Example 3, (S)-1-(1-(3-chlorophenyl)-2-hydroxyethyl)-4-(3-methyl-1H-indazol-5-yl)pyridin-2(1H)-one]
Human ERK2
  IC50: 10 to 50 nM
Colo205 cell line
  IC50: 1000 to 5000 nM

## Cc1cc(-c2n[nH]c3ncc(-c4ccn([C@H](CO)c5cccc(Cl)c5)c(=O)c4)cc23)ccn1 [Example 4, (S)-1-(1-(3-chlorophenyl)-2-hydroxyethyl)-4-(3-(2-methylpyridin-4-yl)-1H-pyrazolo[3,4-b]pyridin-5-yl)pyridin-2(1H)-one]
Human ERK2
  IC50: < 10 nM
Colo205 cell line
  IC50: 500 to 1000 nM

## CNc1n[nH]c2ccc(-c3ccn([C@H](CO)c4cccc(Cl)c4)c(=O)c3)cc12 [Example 5, (S)-1-(1-(3-chlorophenyl)-2-hydroxyethyl)-4-(3-(methyl-amino)-1H-indazol-5-yl)pyridin-2(1H)-one]
Human ERK2
  IC50: 10 to 50 nM
Colo205 cell line
  IC50: 1000 to 5000 nM

## Cc1cc(-c2n[nH]c3ccc(-c4ccn([C@H](CO)c5cccc(Br)c5)c(=O)c4)cc23)ccn1 [Example 6, (S)-1-(1-(3-bromophenyl)-2-hydroxyethyl)-4-(3-(2-methyl-pyridin-4-yl)-1H-indazol-5-yl)pyridin-2(1H)-one]
Human ERK2
  IC50: < 10 nM
Colo205 cell line
  IC50: ≤ 500 nM

## Cn1nccc1-c1n[nH]c2ccc(-c3ccn([C@H](CO)c4cccc(Cl)c4)c(=O)c3)cc12 [Example 7, (S)-1-(1-(3-chlorophenyl)-2-hydroxyethyl)-4-(3-(1-methyl-1H-pyrazol-5-yl)-1H-indazol-5-yl)pyridin-2(1H)-one]
Human ERK2
  IC50: 10 to 50 nM
Colo205 cell line
  IC50: 1000 to 5000 nM

## Cc1cc(-c2n[nH]c3ccc(-c4ccn(Cc5cc(F)cc(Br)c5)c(=O)c4)cc23)ccn1 [Example 8, 1-(3-bromo-5-fluorobenzyl)-4-(3-(2-methylpyridin-4-yl)-1H-indazol-5-yl)pyridin-2(1H)-one]
Human ERK2
  IC50: < 10 nM
Colo205 cell line
  IC50: 500 to 1000 nM

## Cc1cc(-c2n[nH]c3ccc(-c4ccn([C@H](CO)c5cccc(Cl)c5)c(=O)c4)nc23)ccn1 [Example 9, (S)-1-(1-(3-chlorophenyl)-2-hydroxyethyl)-4-(3-(2-methyl-pyridin-4-yl)-1H-pyrazolo[4,3-b]pyridin-5-yl)pyridin-2(1H)-one]
Human ERK2
  IC50: < 10 nM
Colo205 cell line
  IC50: 500 to 1000 nM

## CC(C)Oc1cc(-c2n[nH]c3ccc(-c4ccn(Cc5cc(F)cc(Br)c5)c(=O)c4)cc23)ccn1 [Example 10, 1-(3-bromo-5-fluorobenzyl)-4-(3-(2-isopropoxypyridin-4-yl)-1H-indazol-5-yl)pyridin-2(1H)-one]
Human ERK2
  IC50: 10 to 50 nM
Colo205 cell line
  IC50: > 5000 nM

## Nc1n[nH]c2ccc(-c3ccn([C@H](CO)c4cccc(Cl)c4)c(=O)c3)cc12 [Example 11, (S)-4-(3-amino-1H-indazol-5-yl)-1-(1-(3-chlorophenyl)-2-hydroxyethyl)pyridin-2(1H)-one]
Human ERK2
  IC50: 10 to 50 nM
Colo205 cell line
  IC50: > 5000 nM

## Cn1nccc1Nc1n[nH]c2ccc(-c3ccn([C@H](CO)c4cccc(Cl)c4)c(=O)c3)cc12 [Example 12, (S)-1-(1-(3-chlorophenyl)-2-hydroxyethyl)-4-(3-((1-methyl-1H-pyrazol-5-yl)amino)-1H-indazol-5-yl)pyridin-2(1H)-one]
Human ERK2
  IC50: 10 to 50 nM
Colo205 cell line
  IC50: 1000 to 5000 nM

## Cc1cc(-c2n[nH]c3ccc(-c4ccn([C@H](CO)c5cccc(Cl)c5)c(=O)c4)c(F)c23)ccn1 [Example 13, (S)-1-(1-(3-chlorophenyl)-2-hydroxyethyl)-4-(4-fluoro-3-(2-methylpyridin-4-yl)-1H-indazol-5-yl)pyridin-2(1H)-one]
Human ERK2
  IC50: < 10 nM
Colo205 cell line
  IC50: 500 to 1000 nM

## Cc1cc(-c2n[nH]c3cc(F)c(-c4ccn([C@H](CO)c5cccc(Cl)c5)c(=O)c4)cc23)ccn1 [Example 14, (S)-1-(1-(3-chlorophenyl)-2-hydroxyethyl)-4-(6-fluoro-3-(2-methylpyridin-4-yl)-1H-indazol-5-yl)pyridin-2(1H)-one]
Human ERK2
  IC50: 10 to 50 nM
Colo205 cell line
  IC50: 1000 to 5000 nM

## Cc1cc(-c2n[nH]c3ccc(-c4ccn([C@H](CO)c5ccc(Cl)c(F)c5)c(=O)c4)cc23)ccn1 [Example 15, (S)-1-(1-(4-chloro-3-fluorophenyl)-2-hydroxyethyl)-4-(3-(2-methylpyridin-4-yl)-1H-indazol-5-yl)pyridin-2(1H)-one]
Human ERK2
  IC50: < 10 nM
Colo205 cell line
  IC50: ≤ 500 nM

## Cc1nn(C)cc1-c1n[nH]c2ccc(-c3ccn([C@H](CO)c4cccc(Cl)c4)c(=O)c3)cc12 [Example 16, (S)-1-(1-(3-chlorophenyl)-2-hydroxyethyl)-4-(3-(1,3-dimethyl-1H-pyrazol-4-yl)-1H-indazol-5-yl)pyridin-2(1H)-one]
Human ERK2
  IC50: < 10 nM
Colo205 cell line
  IC50: 500 to 1000 nM

## CC(C)Oc1ccc(-c2n[nH]c3ccc(-c4ccn([C@H](CO)c5cccc(Cl)c5)c(=O)c4)cc23)cn1 [Example 17, (S)-1-(1-(3-chlorophenyl)-2-hydroxyethyl)-4-(3-(6-isopropoxypyridin-3-yl)-1H-indazol-5-yl)pyridin-2(1H)-one]
Human ERK2
  IC50: < 10 nM
Colo205 cell line
  IC50: 500 to 1000 nM

## Cn1cc(-c2n[nH]c3ccc(-c4ccn([C@H](CO)c5cccc(Cl)c5)c(=O)c4)cc23)cn1 [Example 18, (S)-1-(1-(3-chlorophenyl)-2-hydroxyethyl)-4-(3-(1-methyl-1H-pyrazol-4-yl)-1H-indazol-5-yl)pyridin-2(1H)-one]
Human ERK2
  IC50: < 10 nM
Colo205 cell line
  IC50: ≤ 500 nM

## CC(C)Oc1cc(-c2n[nH]c3ccc(-c4ccn([C@H](CO)c5cccc(Cl)c5)c(=O)c4)cc23)ccn1 [Example 19, (S)-1-(1-(3-chlorophenyl)-2-hydroxyethyl)-4-(3-(2-isopropoxypyridin-4-yl)-1H-indazol-5-yl)pyridin-2(1H)-one]
Human ERK2
  IC50: < 10 nM
Colo205 cell line
  IC50: 1000 to 5000 nM

## CC(C)(O)c1ccc(-c2n[nH]c3ccc(-c4ccn([C@H](CO)c5ccc(F)c(Cl)c5)c(=O)c4)cc23)cn1 [Example 20, (S)-1-(1-(3-chloro-4-fluorophenyl)-2-hydroxyethyl)-4-(3-(6-(2-hydroxypropan-2-yl)pyridin-3-yl)-1H-indazol-5-yl)pyridin-2(1H)-one]
Human ERK2
  IC50: 10 to 50 nM
Colo205 cell line
  IC50: 1000 to 5000 nM

## CC(C)(O)c1cc(-c2n[nH]c3ccc(-c4ccn([C@H](CO)c5ccc(F)c(Cl)c5)c(=O)c4)cc23)ccn1 [Example 21]
Human ERK2
  IC50: < 10 nM
Colo205 cell line
  IC50: 1000 to 5000 nM
